Experimental data: patent US5652222A, “Selective inhibition of leukemic cell proliferation by bcr-abl antisense oligonucleotides” (Temple University-of The Commonwealth System of Higher …, priority 1993, dated 1997)
Entries after “also recorded” stand apart in the source; their conditions may differ.

Columns and labels:
[1] = test system: normal hematopoietic progenitor cells (normal bone marrow MNC); experiment: CFU-GM colony formation of normal hematopoietic progenitor cells; format: cell-based, human; details: Table 3; 40 μg/ml at 0 h, 20 μg/ml 18 h later; 12 days; mean ± SD; control 263 ± 10
Text: Normal bone marrow mononuclear cells (MNC) were obtained by aspiration from consenting volunteers and enriched for hematopoietic progenitors as previously reported by numerous investigators (Zamecnick et al., Proc. Natl. Acad. Sci. U.S.A. 83, 4143-4147 (1986); Caracciolo et al., J. Clin. Invest. 85, 55-61 (1990)). In brief, marrow cells were subjected to Ficoll-Hypaque density gradient sedimentation and then depleted of adherent monocyte-macrophage and T-lymphocytes by adherence to plastic Petri dishes and rosetting with neuraminidase-treated sheep red blood cells, respectively. Philadelphia chromosome-positive blast cells were isolated by Ficoll-Hypaque density gradient sedimentation from a CML patient in blast crisis (L-6 type junction). […] The residual non-blast cells had the morphological appearance of small lymphocytes. 25,000 MNC and 25,000 CML blast cells were combined and incubated with bcr-abl breakpoint-Specific antisense oligomer (SEQ ID NO:3) (40 μg/ml at h 0; 20 μg/ml 18 hours later) or with a 4 nucleotide mismatch bcr-abl antisense oligomer (SEQ ID NO:2) (40 μg/ml at 0 h; 20 μg/ml 18 hours later) or left untreated. […] At the end of the incubation period colonies were counted. […]

[2] = test system: cells of CML patients in blast crisis, K-28 (b3a2) type junction; experiment: Colony formation of CML blast crisis patient cells expressing the b3a2 (K-28) junction; format: cell-based, human; details: antisense to L-6 junction on K-28 cells, compared with untreated cells
Text: To identify CML blast crisis patients carrying the second common type junction, in which bcr exon 3 is juxtaposed to c-abl exon 2, total RNA derived from cells of CML patients in blast crisis was reverse-transcribedwith synthetic primers. The 3' primer (SEQ ID NO:10) was complementary to 22 nucleotides of c-abl. exon 2. The 5' primer was the 22-mer GTCATCGTCCACTCAGCCACTG (SEQ ID NO:12) complementary to 22 nucleotides of bcr exon 3. The RNA was amplified by polymerase chain reaction according to Example 1. The amplification products were then hybridized with the synthetic 18-mer oligonucleotide GAAGGGCTTT TGAACTCT (SEQ ID NO:6), which is complementary to the b3a2 junction. After cloning of breakpoints in two patients, sequence analysis of several clones identified the b3a2 junction as precisely corresponding to the K-28 breakpoint shown in FIG. 3. (SEQ ID NO:4).
Utilizing the culture condition and oligomer treatment conditions of Example 1, cells were exposed to either no oligomer (FIG. 4A), the 18-nucleotide synthetic oligomer GAAGTGCTGT TGAACTCT (SEQ ID NO:5) partially complementary to the b3a2 junction, containing 9 nucleotides corresponding to bcr and 9 nucleotides corresponding to c-abl but with two mismatches (FIG. 4B); or the 18-nucleotide synthetic oligomer GAAGGGCTTT TGAACTCT (SEQ ID NO:6) completely complementary to the same bcr-abl junction (FIG. 4C).

BV173 cells = experiment: Macroscopic examination / disease state of leukemic SCID mice; format: in vivo, SCID mice (human leukemic cells)
Procedure: Injection of the mice with BV173 cells induces a disease closely resembling that in human leukemia patients.
To determine whether synthetic phosphorothioate oligodeoxynucleotides targeted against the bcr-abl junction of […] cells would modify the disease process in SCID mice. SCID mice were injected with 10^6 BV173 cells. The mice then received 1 mg of sense (ATCAATAAGG AAGCCCTTCAGCG, SEQ ID NO:34) or antisense ([…] ATTGAT, SEQ ID NO:29) b2/a2 bcr-abl phosphorothioate oligodeoxynucleotides (pyrogen leven <1 Eu/mg; 0.2 ml in Iscove modified Dulbecco medium in 5-10 seconds) intravenously for each of 9 consecutive days, beginning either 7 or 21 days after introducing 10^6 BV173 cells. Control mice received the diluent (iscove's modified Dulbecco medium) only. These time points approximate distinct disease stages in humans.

BV173 cells (b2/a2) = experiment: Proliferation of BV173 cells expressing b2a2 junction; format: cell-based, human; details: in comparison to untreated control cells (FIG. 7)
Procedure: Amplification of the bcr-abl junction with a 5' primer corresponding to bcr exon 2, and a 3' primer corresponding to abl exon 2, followed by hybridization to an 18-mer specific for the b2/a2 or the b3/a2 junction identified the b2/a2 breakpoint in these cells (data not shown).
The sensitivity of the BV173 cells to b2/a2 antisense phosphorothioate oligodeoxynucleotides was assessed. Phosphorothioate oligodeoxynucleotides were prepared on either an Applied Biosystems Model 380B or 390Z Automated Synthesis instrument using conventional phosphoramidite monomers and manufacturer-recommended procedures, which included substitution of tetraethylthiuran (or an equivalent sulfur-donor reagent) for iodine-water-pyridine, […] reversed-phase preparative chromatography, detritylation, and obtaining the final product in the form of its sodium salt, all according to previously published methodology: Zon and Stec, in Oligonucleotides and Analogues A Practical Approach, F. Eckstein, Ed. (Oxford Univerisity Press, Oxford 1991), pp. 87-108; Zon and Geiser, Anti-Cancer Drug Design 6, 539 (1991); Vu and Hirschenbein, Tetrahedron Lett. 32, 3005-3008 (1991).
BV173 cells were cultured in the presence of phosphorothioate b2/a2 antisense 26-mer CGCTGAAGGG CTTCTTCCT ATTGAT (SEQ ID NO:29), the phosphorothioate sense sequence ATCAATAAGGAAGCCCTTCAGCG (SEQUENCE ID NO:34), or the b3/a2 (SEQ ID NO:31) or b1/a2 (SEQ ID N0:33) phosphorothioate antisense 26-mer. […] The sense oligomer SEQ ID NO:34 gave no inhibition (FIG. 7, -.largecircle.-) in comparison to untreated control cells (FIG. 7, -.quadrature.-).

Substance	Colonies or Clusters, CFU-GM [1]	inhibition of colony formation [2]	reduction of colony formation [2]	evidence of active leukemic disease process (BV173 cells; 1 mg/mouse x9 i.v. from day 7 or 21)	macroscopic examination: leukemic nodules in liver and kidneys (BV173 cells; from day +7, 26 days after last treatment (6 weeks))	splenomegaly and leukemic metastases in the liver (BV173 cells; from day +21, 12 days after last treatment (6 weeks))	macroscopic examination: metastases / leukemic nodules in liver, kidneys, splenomegaly (BV173 cells; from day +21, 26 days after treatment (8 weeks), FIG. 11)	inhibition of proliferation of BV173 cells (BV173 cells (b2/a2))
SEQ ID NO:3: synthetic 18-mer GAAGGGCTTC TTCCTTAT specific for the 18-nucleotide target sequence of the L-6 bcr-abl junction (antisense GAAGGGCTTCTTCCTTAT; chemistry not given here)	253 ± 35 colonies or clusters	2.5-5%	No significant reduction of colony formation					
SEQ ID NO:34: phosphorothioate sense sequence ATCAATAAGGAAGCCCTTCAGCG (23-mer b2a2 sense) (sense ATCAATAAGGAAGCCCTTCAGCG; all phosphorothioate, sugars by position and methylation of C not given here)				macroscopic, microscopic and molecular evidence of an active leukemic disease process	in addition to spleen enlargement, the presence of distinct leukemic nodules in liver and kidneys	splenomegaly and leukemic metastases in the liver were detected	numerous metastases in the liver (FIG. 11A), a few in the kidneys, and splenomegaly; also recorded: Numerous distinct leukemic nodules are visible in the liver	no inhibition
